Earlier results, collected in US7850723B1, “Method and apparatus for patient temperature control employing titration of therapy using EEG signals” (Innercool Therapies, Inc., priority 2005, dated 2010).

Legend:
clots [1] = settings: clots treated with plasminogen (2 mg) and SK (100 IU) in 15 ml PBS; clot temperature raised from 24° C. to 37° C.
[2] = in vivo
clots [3] = settings: clots treated with UK at 4° C. and 28° C.; heating to 28° C.

## streptokinase [SK]
Clots [1]
  fibrinolytic activity: heating enhanced the fibrinolytic activity

## CCOC(=O)C1(c2ccccc2)CCN(C)CC1 [Meperidine]
[2]
  decrease of shivering threshold relative to vasoconstriction threshold: twice as much

## urokinase [UK]
Clots [3]
  fibrinolytic activity (conversion of plasminogen to plasmin): complete conversion of all plasminogen to plasmin
